Laboratory results as given in US20050192261A1, “Methods and reagents for the treatment of immunoinflammatory disorders” (priority 2003, published 2005).
Like-named read-outs stand apart in the source and are kept apart here.

System: TNFα secretion in white blood cells from human buffy coat stimulated with phorbol 12-myristate 13-acetate and ionomycin
Test: TNFα secretion assay
Conditions: Homo sapiens; for inhibition at 0.5 µM: read-out: % inhibition of TNFα secretion, Rolipram 0.5 μM; for inhibition at 1 µM: read-out: % inhibition of TNFα secretion, Rolipram 1 μM
[1] = Bromodiphenhydramine HCl μM r5-r13: 0,0.21,0.43,0.85,1.7,3.4,6.8,14,27
[2] = Cyproheptadine HCl μM r5-r13: 0,0.24,0.48,0.96,1.9,3.9,7.7,15,31
[3] = Loratadine μM r5-r13: 0,0.2,0.41,0.82,1.6,3.3,6.5,13,26
[4] = Thiethylperazine Maleate μM r5-r13: 0,0.2,0.39,0.78,1.6,3.1,6.3,13,25

Method: Drugs were added to the indicated concentration. […] The plate was then washed again with 0.1% Tween 20/PBS. An HRP-luminescent substrate was added to each well, and the light intensity of each well was measured using a plate luminometer.

## COc1ccc(C2CNC(=O)C2)cc1OC1CCCC1 (centres unmarked) [Rolipram]
[1]
  inhibition at 0.5 µM: 37%
  inhibition at 1 µM: 44%
[2]
  inhibition at 0.5 µM: 44%
  inhibition at 1 µM: 38%
[3]
  inhibition at 0.5 µM: 43%
  inhibition at 1 µM: 50%
[4]
  inhibition at 0.5 µM: 38%
  inhibition at 1 µM: 39%
